# Source: patent US7041701B2, “Triterpenoid derivatives” (Univerzita Palackeho V Olomouci, priority 2000, dated 2006)
# Read-outs that look alike come from different tables or passages of the source.
# Key:
# [1] = system: K562 human promyelocytic leukemia; test: MTT cytotoxicity assay, K562; type: cell-based; settings: Homo sapiens, 72 hours, read-out: TCS50
# Excerpt: (§1) One of the parameters used as the basis for colorimetric assays is the metabolic activity of viable cells. For example, a microtiter assay which uses the tetrazolium salt MTT is now widely used to quantitate cell proliferation and cytotoxicity [Hajdúch M, Mihál V, Minarík J, Fáber E, Safárová M, Weigl E, Antálek P.: Cytotechnology, 1996, 19, 243–245]. For instance, this assay is used in drug screening programs and in chemosensitivity testing. Because tetrazolium salts are cleaved only by metabolically active cells, these assays exclusively detect viable cells. In the case of the MTT assay, yellow soluble tetrazolium salt is reduced to a coloured water-insoluble formazan salt. After it is solubilized, the formazan formed can easily and rapidly be quantified in a conventional ELISA plate reader at 570 nm (maximum absorbancy). The quantity of reduced formazan corresponds to the number of vital cells in the culture. […]
# (§2) The cell suspensions that were prepared and diluted according to the particular cell type and the expected target cell density (2,500–30,000 cells per well based on cell growth characteristics) were added by pipette (80 μl) into 96/well microtiter plates. […] Usually, test compounds were evaluated at six 4-fold dilutions. […] The tumour cell survival (TCS) was calculated using the following equitation: TCS=(ODdrug exposed well/mean ODcontrol wells)×100%. […]
# [2] = system: K562-ARA-C human promyelocytic leukemia, cytarabin resistant; test: MTT cytotoxicity assay, K562-ARA-C; type: cell-based; settings: Homo sapiens, 72 hours, read-out: TCS50
# Excerpt: as §1, §2
# [3] = system: CEM-VCR 1/F3 human T-lymphoblastic leukemia, vincristin resistant; test: MTT cytotoxicity assay, CEM-VCR 1/F3; type: cell-based; settings: Homo sapiens, 72 hours, read-out: TCS50
# Excerpt: as §1, §2
# HT-29 human colon cancer = test: MTT cytotoxicity assay, HT-29; type: cell-based; settings: Homo sapiens, 72 hours, read-out: TCS50
# Excerpt: as §1, §2
# [4] = system: SW620 human colon cancer, metastasis; test: MTT cytotoxicity assay, SW620; type: cell-based; settings: Homo sapiens, SW-620, 72 hours, read-out: TCS50
# Excerpt: as §1, §2
# B16 mouse melanoma = test: MTT cytotoxicity assay, B16; type: cell-based; settings: Mus musculus, 72 hours, read-out: TCS50
# Excerpt: as §1, §2
# [5] = system: U2OS human osteosarcoma, p53+/−, Rb+/−; test: MTT cytotoxicity assay, U2OS; type: cell-based; settings: Homo sapiens, 72 hours, read-out: TCS50
# Excerpt: as §1, §2
# [6] = system: CEM-DNR bulk human T-lymphoblastic leukemia, daunorubicin resistant; test: MTT cytotoxicity assay, CEM-DNR bulk; type: cell-based; settings: Homo sapiens, 72 hours, read-out: TCS50
# Excerpt: as §1, §2
# MEL-3 human melanoma = test: MTT cytotoxicity assay, MEL-3; type: cell-based; settings: Homo sapiens, 72 hours, read-out: TCS50
# Excerpt: as §1, §2
# [7] = system: B16F mouse melanoma, metastatic; test: MTT cytotoxicity assay, B16F; type: cell-based; settings: Mus musculus, 72 hours, read-out: TCS50
# Excerpt: as §1, §2
# [8] = system: CEM human T-lymphoblastic leukemia; test: MTT cytotoxicity screening assay, CEM; type: cell-based
# Excerpt: One of the parameters used as the basis for colorimetric assays is the metabolic activity of viable cells. For example, a microtiter assay which uses the tetrazolium salt MTT is now widely used to quantitate cell proliferation and cytotoxicity [Hajdúch M, Mihál V, Minarík J, Fáber E, Safárová M, Weigl E, Antálek P.: Cytotechnology, 1996, 19, 243–245]. For instance, this assay is used in drug screening programs and in chemosensitivity testing. Because tetrazolium salts are cleaved only by metabolically active cells, these assays exclusively detect viable cells. In the case of the MTT assay, yellow soluble tetrazolium salt is reduced to a coloured water-insoluble formazan salt. After it is solubilized, the formazan formed can easily and rapidly be quantified in a conventional ELISA plate reader at 570 nm (maximum absorbancy). The quantity of reduced formazan corresponds to the number of vital cells in the culture.
# Human T-lymphoblastic leukaemia cell line CEM was used for routine screening of these compounds. […] The cells were maintained in Nunc/Corning 80 cm^2 plastic tissue culture flasks and cultured in cell culture medium (DMEM with 5 g/l glucose, 2 mM glutamine, 100 U/ml penicillin, 100 μg/ml streptomycin, 10% foetal calf serum and sodium bicarbonate). Individual compounds were dissolved in 10% diiethylsulfoxide/saline, pH 8.0.
# The cell suspensions that were prepared and diluted according to the particular cell type and the expected target cell density (2,500–30,000 cells per well based on cell growth characteristics) were added by pipette (80 μl) into 96/well microtiter plates. Inoculates were allowed a pre-incubation period of 24 hours at 37° C. and 5% CO2 for stabilisation. Four-fold dilutions of the intended test concentration were added at time zero in 20 μl aliquots to the microtiter plate wells. Usually, test compounds were evaluated at six 4-fold dilutions. In routine testing, the highest well concentration was 250 μM, but it may differ, depending on the agent. All drug concentrations were examined in duplicate. Incubations of cells with the test compounds lasted for 72 hours at 37° C., in 5% CO2 atmosphere and 100% humidity. At the end of the incubation period, the cells were assayed by using the MTT assay. […] After this incubation period, formazan was solubilized by the addition of 100 μl/well of 10% SDS in water (pH=5.5) followed by further incubation at 37° C. overnight The optical density (OD) was measured at 540 nm with the Labsystem iEMS Reader MF(UK). The tumour cell survival (TCS) was calculated using the following equitation: TCS=(ODdrug exposed well/mean ODcontrol wells)×100%. The TCS50 value, the drug concentration lethal to 50% of the tumour cells, was calculated from the obtained dose response curves. […]
# U87MG human glioblastoma = test: MTT cytotoxicity assay, U87MG; type: cell-based; settings: Homo sapiens, U-87 MG, 72 hours, read-out: TCS50
# Excerpt: as §1, §2
# [9] = system: K562-GEM human promyelocytic leukemia, gemcitabin resistant; test: MTT cytotoxicity assay, K562-GEM; type: cell-based; settings: Homo sapiens, 72 hours, read-out: TCS50
# Excerpt: as §1, §2
# [10] = system: NIH3T3 mouse immortalised fibroblasts; test: MTT cytotoxicity assay, NIH3T3; type: cell-based; settings: Mus musculus, 72 hours, read-out: TCS50
# Excerpt: as §1, §2
# [11] = system: CEM-DNR 1/C2 human T-lymphoblastic leukemia, daunorubicin resistant; test: MTT cytotoxicity assay, CEM-DNR 1/C2; type: cell-based; settings: Homo sapiens, 72 hours, read-out: TCS50
# Excerpt: as §1, §2
# [12] = system: Saos2 human, p53−/−, Rb−/−; test: MTT cytotoxicity assay, Saos2; type: cell-based; settings: Homo sapiens, SAOS-2, 72 hours, read-out: TCS50
# Excerpt: as §1, §2
# human normal lymphocytes = test: MTT cytotoxicity assay, normal lymphocytes; type: cell-based; settings: Lymphocyte, 72 hours, read-out: TCS50
# Excerpt: as §1, §2
# [13] = system: CEM-VCR 3/D5 human T-lymphoblastic leukemia, vincristin resistant; test: MTT cytotoxicity assay, CEM-VCR 3/D5; type: cell-based; settings: Homo sapiens, 72 hours, read-out: TCS50
# Excerpt: as §1, §2
# [14] = system: Caco-2 human colon cancer; test: MTT cytotoxicity assay, Caco-2; type: cell-based; settings: Homo sapiens, 72 hours, read-out: TCS50
# Excerpt: as §1, §2
# [15] = system: CEM-VCR bulk human T-lymphoblastic leukemia, vincristin resistant; test: MTT cytotoxicity assay, CEM-VCR bulk; type: cell-based; settings: Homo sapiens, 72 hours, read-out: TCS50
# Excerpt: as §1, §2
# [16] = system: HepG2 human hepatocellular carcinoma; test: MTT cytotoxicity assay, HepG2; type: cell-based; settings: Homo sapiens, 72 hours, read-out: TCS50
# Excerpt: as §1, §2
# [17] = system: K562-CdA human promyelocytic leukemia, cladrubin resistant; test: MTT cytotoxicity assay, K562-CdA; type: cell-based; settings: Homo sapiens, 72 hours, read-out: TCS50
# Excerpt: as §1, §2
# [18] = system: BT549 human breast cancer, p53mut/mut; test: MTT cytotoxicity assay, BT549; type: cell-based; settings: Homo sapiens, BT-549, 72 hours, read-out: TCS50
# Excerpt: as §1, §2
# [19] = system: K562-FLUD human promyelocytic leukemia, fludarabin resistant; test: MTT cytotoxicity assay, K562-FLUD; type: cell-based; settings: Homo sapiens, 72 hours, read-out: TCS50
# Excerpt: as §1, §2
# H3 histone (Lys9) = test: Histone acetylation, Western blot in CEM cells; type: cell-based, human
# Experimental: CEM cells were cultured in Dulbeco's modified essential medium with 4.5 g dextrose/l, 10% of foetal calf serum, 2 mM glutamine, 100 U/ml penicillin and 100 μg/ml streptomycin with/without the indicated concentrations of HDAC inhibitor TSA or I.3. At selected time points, cells were harvested, washed in ice cold Hank's balanced salt solution and solubilized on ice using SDS-PAGE sample buffer containing protease and phosphatase inhibitors (10 μg/ml of leupeptin, 10 μg/ml of aprotinin, 10 μg/ml of soybean trypsin inhibitor, 100 μmol of benzamide, 1 mM of sodium vanadate, 1 mM of NaF, 1 mM of phenylphosphate) and boiled immediately.
# Total cellular proteins (100 μg/well) were separated on SDS-PAGE electrophoresis, blotted on polyvinyldifluoride membranes and acetylated histone was detected using a anti-acetyl(Lys9)-histone H3 rabbit polyclonal antibody (Cell Signalling Technology, Beverly, Mass.; Cat# 9671L) and visualized by chemilumniuscence (ECL-Western Blotting System, Amersham). Details of the Western blot technique are described in Ausubel, F. M., Brent, R, Kingston, R. E., Moore, D. D., Seidman, J. G., Smith, J. A., Struhl, K. (Eds): Short Protocols in Molecular. Biology, 2nd edition, John Wiley & Sons, New York, Chichester, Brisbane, Toronto, Singapore, 1992, page 10–33–10–35.
# [20] = system: human SK-N-AS neuroblastoma; test: In vivo activity in xenotransplanted human neuroblastoma; set-up: species or system CD-1/Ctrl-1 nu/nu nude female mice; settings: cisplatin 4 mg/kg subcutaneously 1×D1; SK-N-AS in nude mice (FIG. 2)
# Experimental: Human neuroblastoma SK-N-AS cell line was obtained from ATTC. The line was cultured in Dulbeco's modified essential medium with 4.5 g dextrose/l, 10% of foetal calf serum, 2 mM glutamine, 100 U/ml penicillin and […] streptomycin. For transplantation purposes, only the cells in log phase were used.
# CD-1/Ctrl-1 nu/nu nude female mice, 8 weeks old, 18–22 g weight were used in this study (IffaCredo, France). Animals were inoculated with 5.10^6 tumour cells subcutaneously into right inquinal region. Following transplantation, tumor growth was measured in both the control/vehicle and the treated groups using calipers. Tumor volume (TV) was calculated as follows: TV=(a^2×b)/2, where a is width and b is length The statistical significance was evaluated using a […].
# Cisplatin (Platidiam 10 inj, sicc., Lachema, Czech Republic) was used as a control drug in this experiment. It was diluted in apyrogenic water and applied to animals in a final volume of 0.18 ml subcutaneously at day 1.
# I.3 was synthesised as described above. It was suspended at 10 mg/ml in 5% dextrose and pH was adjusted to 8.0 with sodium hydroxide. vehicle: 5% dextrose with pH adjusted to 8.0 with sodium hydroxide. […]
compound,measurement,setting,value
"C=C(C)[C@@H]1CC[C@]2(C(=O)O)CC[C@]3(C)[C@H](CC[C@@H]4[C@@]5(C)CC[C@H](O)C(C)(C)[C@@H]5CC[C@]43C)[C@@H]12 [Betulinic acid, betulinic acid, reference compound]",IC50,[1],250 µM
same,IC50,[2],250 µM
same,IC50,[3],19 µM
same,IC50,HT-29 human colon cancer,250 µM
same,IC50,[4],250 µM
same,IC50,B16 mouse melanoma,36 µM
same,IC50,[5],250 µM
same,IC50,[6],250 µM
same,IC50,MEL-3 human melanoma,2.7 µM
same,IC50,[7],4.6 µM
same,IC50,"[8]; Homo sapiens, CEM, MTT assay, 72 hours, read-out: TCS50",250 µM
same,IC50,U87MG human glioblastoma,250 µM
same,IC50,[9],101 µM
same,IC50,[10],250 µM
same,IC50,[11],250 µM
same,IC50,[12],250 µM
same,IC50,human normal lymphocytes,250 µM
same,IC50,[13],24 µM
same,IC50,[14],20 µM
same,IC50,[15],69 µM
same,IC50,[16],3.6 µM
same,IC50,[17],250 µM
same,IC50,[18],250 µM
same,IC50,[19],250 µM
"CC(/C=C/C(=O)NO)=C\[C@@H](C)C(=O)c1ccc(N(C)C)cc1 [TSA, trichostatin A, reference compound]",increase of histone acetylation,H3 histone (Lys9); 0.24 μM (IC50),no significant ability to increase histone acetylation
same,acetylation of H3 histone in Lys9 position,H3 histone (Lys9); Western blot (FIG. 5),rapidly acetylated
same,IC50,"[8]; CEM cells, as stated in the histone acetylation study, read-out: IC50",0.24 µM
"N.N.[Cl][Pt][Cl] [cisplatin, Cisplatin, reference compound]",tumor growth (tumor volume),[20],no significant activity
